In patent EP4681707A1, “METHOD FOR TREATING DISEASES BY USING REPARIXIN ALONE OR IN COMBINATION WITH ANTI-PD-1 ANTIBODY” (Shandong Cancer Hospital Affiliated to Shandong First …, priority 2023, dated 2024):

Key:
Luciferase-MC38 cells = assay: Mouse CRC liver metastasis model by intra-splenic injection, reparixin alone (Example 4); type: in vivo, C57BL/6 mice; details: for liver weight / liver/body weight ratio: reparixin 30 mg/kg intraperitoneally every other day, day 12
Protocol: Experimental methods: Luciferase-MC38 cells were intrasplenically injected into C57BL/6 mice complicated by NAFLD or uncomplicated by NAFLD. Subsequently, reparixin (MCE, 30 mg/kg) or PBS was intraperitoneally injected every other day. On day 6 after tumor inoculation, the extent of liver metastasis was observed by imaging using an In vivo Imaging System (IVIS, PerkinElmer, Hopkinton, MA, USA). On day 12 after tumor inoculation, the mice were sacrificed under isoflurane anesthesia and soaked in alcohol for 30 min. Livers from each group of mice were prepared into single-cell suspensions, which were subjected to blocking, staining, incubation, and subsequent detection on the machine.
(§1) Experimental grouping: The experimental groups were injected with reparixin, and the control group was injected with PBS.
(A) Experimental treatment protocol: After Luciferase-MC38 cells were inoculated, PBS or reparixin was injected on days 3, 5, 7, 9, and 11, respectively, and the mice were sacrificed on day 12. (B) In vivo bioluminescence imaging of each group (CRLM group, CRLM + reparixin group, NAFLD + CRLM group, NAFLD + CRLM + reparixin group) on day 6 after tumor inoculation. (C) Representative gross anatomical views of livers of each group of mice (samples collected on day 12 after treatment); yellow arrows represent tumors. (D) Liver weight of each group of mice; n = 5-6.

NAFLD = assay: Mouse NAFLD model induced by 60% high-fat feed, oil red staining and immunohistochemistry of liver (Example 6); type: in vivo; details: NAFLD mice, 30 mg/kg intraperitoneally once every 2 days
Protocol: Experimental methods: The "Western diet" (WD) was simulated with 60% high-fat feed, and the NAFLD model could be established within 12 weeks. After the establishment of the animal model, the mice were intraperitoneally injected once every 2 days at a dose of 30 mg/kg. Liver tissues of the mice were collected on days 12, 15, and 21 of administration, and oil red staining was performed on the liver tissues of each group.
as §1
(A) After NAFLD was established, raparixin was intraperitoneally injected once every two days; macroscopic views of representative liver tissues and oil red staining of liver sections in each group are shown, and the scale represents 50 µm. (B) Oil red staining positive area rate of NAFLD and 12-day treatment groups, n = 4. (C) Oil red staining positive area rate of NAFLD and 15-day treatment groups, n = 4. Statistical test: mean + SD, Student's t-test, * p < 0.05.
A: representative gross views of livers of mice in the NAFLD treatment group and untreated group, and oil red O staining and immunohistochemical staining on liver sections of the two groups of mice, with the scale bar being 100 µm; B-C: comparison of mean immunohistochemical staining densities of IL6 (B) and CXCR2 (C) in livers of NAFLD mice treated with reparixin for 21 days (mean ± SD, Student's t test).

[1] = 5 mg/kg subcutaneously once daily for 3 consecutive weeks; cited from earlier work
IL-1β = details: after MCAo in mice; cited from earlier work
gastric cancer = details: treatment of gastric cancer; cited from earlier work

With `CC(C)Cc1ccc([C@@H](C)C(=O)NS(C)(=O)=O)cc1` [reparixin] the liver weight (Luciferase-MC38 cells; CRLM animal model) was “decreased significantly”, the liver/body weight ratio (Luciferase-MC38 cells; CRLM animal model) was “decreased significantly” and the liver weight (Luciferase-MC38 cells; NAFLD + CRLM animal model) was “decreased significantly”. For the same compound, the liver/body weight ratio (Luciferase-MC38 cells; NAFLD + CRLM animal model) was “decreased significantly”, the liver metastasis burden (Luciferase-MC38 cells; especially in mice complicated by NAFLD, 30 mg/kg intraperitoneally) was “can reduce the liver metastasis burden” and the inflammation (NAFLD; IL6 and CXCR2 staining after 21 days) was “reduce inflammation”. The hepatocellular steatosis (NAFLD; days 12, 15, 21) was “significantly ameliorated”, the lipid vacuoles (NAFLD; days 12, 15, 21) was “reduced” and the blood flow [1] was “increased”. For the same compound, the systolic blood pressure [1] was “effectively reduced”, the “level of IL-1β in the brain” value (IL-1β) was “reduce” and the “overall survival (OS) rate” value (gastric cancer) was “prolongs”. The “programmed death ligand 1 macrophages” value (gastric cancer) was “reduction”.
